From patent publication US20060204980A1, “Colorectal cancer therapies” (priority 2004, published 2006)

How the values were obtained:
[1] = target: T1, GSK3β (Homo sapiens, UniProt P49841); conditions: battery of kinase substrates, Bain et al.; cited from earlier work
[2] = system: p53^−/− HCT116 cells; assay: Hypodiploid DNA content by propidium iodide staining and flow cytometry, p53-/- HCT116; assay type: cell-based
Description: Cells were collected and centrifuged at 3,000 rpm for 5 minutes at 4° C., and washed in PBS (pH 7.2). The cell pellet was solubilized in lysis buffer (20 mM Tris, pH 7.2, 0.5% deoxycholate, 1% Triton X-100, 0.1% SDS, 150 mM NaCl, 1 mM EDTA) containing proteases inhibitors (Complete, Roche Applied Science) for 30 min at 4° C. The lysate was cleared by centrifugation for 15 minutes, and protein concentration was evaluated using a Bio-Rad protein assay system (Bio-Rad Laboratories, Hercules, Calif.). Samples (30 μg) were separated by SDS-polyacrylamide gel, transferred to nylon membranes (Millipore), and incubated with primary antibodies to p53 (Oncogene Research Products, FL-393, Santa Cruz Biotechnology, Inc., Santa Cruz, Calif.), p21^Waf1/Cip1 (Oncogene Research Products), XIAP (BD Transduction Laboratories), survivin (NOVUS Biologicals, Littleton, Colo.), MDM2 (Santa Cruz Biotechnology, Inc.), p14^ARF (NOVUS Biologicals), caspase-3 (Cell Signaling Technology), cleaved caspase-3 (Cell Signaling Technology), β-catenin (BD Transduction Laboratories), cyclin B1 (GNS1, Santa Cruz Biotechnology, Inc.), GSK3β (Santa Cruz Biotechnology, Inc.), or β-sactin (Sigma) with detection of reactive bands by chemiluminescence (Amersham). Cells were analyzed for hypodiploid DNA content by propidium iodide staining and flow cytometry as described in O'Connor et al., Cancer Cell, 2:43-54 (2002). Chemicals whose source is not explicitly listed were or can be obtained from Sigma.
The functional consequences of GSK3β inhibition were explored. Source and maintenance of p53^+/+ and p53^−/− HCT116 colorectal carcinoma cells were as described in Example 2. […] Alternatively, cells were incubated with GSK3β inhibitors LiCl (30 mM) or TDZD (20 μM), harvested after 48 hours and analyzed for cell viability (propidium iodide, red channel) and active caspase-3/7 activity (green channel, […]®, from Chemicon International Inc., Temecula, Calif.), by multiparametric flow cytometry as reported previously in Kim et al., Lancet, 362:205-209 (2003). […]

[3] = system: p53^+/+ HCT116 cells; assay: Hypodiploid DNA content by propidium iodide staining and flow cytometry, p53+/+ HCT116; assay type: cell-based; conditions: 0-20 μM, 48 hours
Description: Cells were collected and centrifuged at 3,000 rpm for 5 minutes at 4° C., and washed in PBS (pH 7.2). The cell pellet was solubilized in lysis buffer (20 mM Tris, pH 7.2, 0.5% deoxycholate, 1% Triton X-100, 0.1% SDS, 150 mM NaCl, 1 mM EDTA) containing proteases inhibitors (Complete, Roche Applied Science) for 30 min at 4° C. The lysate was cleared by centrifugation for 15 minutes, and protein concentration was evaluated using a Bio-Rad protein assay system (Bio-Rad Laboratories, Hercules, Calif.). […] Cells were analyzed for hypodiploid DNA content by propidium iodide staining and flow cytometry as described in O'Connor et al., Cancer Cell, 2:43-54 (2002). […]
The functional consequences of GSK3β inhibition were explored. […] Alternatively, cells were incubated with GSK3β inhibitors LiCl (30 mM) or TDZD (20 μM), harvested after 48 hours and analyzed for cell viability (propidium iodide, red channel) and active caspase-3/7 activity (green channel, […]®, from Chemicon International Inc., Temecula, Calif.), by multiparametric flow cytometry as reported previously in Kim et al., Lancet, 362:205-209 (2003).

[4] = system: p42/p44 MAP kinase; conditions: in vivo, Knockaert et al.; cited from earlier work
[5] = system: in vivo adapted p53^+/+ HCT116 cells; assay: Xenograft tumor model with in vivo adapted p53+/+ HCT116 cells; set-up: species or system CB17 SCID/beige mice
Description: In vivo adapted p53^+/+ HCT116 cells (2.5×10^6) were injected in the flank of CB17 SCID/beige mice (Taconics, Germantown, N.Y.) and allowed to form palpable solid tumors for 4-6 days. […] Tumor measurements were taken daily for a week with a caliper. Tumor volume was calculated according to the formula ½ [length (mm)]×[width (mm)]^2.
Adapted HCT116 cells in CB-17 SCID/beige mice gave rise to rapidly growing solid tumors over a one-week period. […] See filled-in circles in FIG. 7.

[6] = target: Cdk2 (Homo sapiens, UniProt P24941); conditions: in vivo, Knockaert et al.; cited from earlier work
[7] = target: T2, p34^cdc2 (Homo sapiens, UniProt P06493); assay: H1 histone kinase assay of p34cdc2 immunoprecipitated from treated HCT116 cells; assay type: cell-based
T2 construct: p34^cdc2 that was immunoprecipitated from HCT116 cells treated with vehicle for 6 to 48 hours consistently phosphorylated histone H1; endogenous in cells; host or cells: HCT116 colorectal carcinoma cells
T2 sequence (P06493 whole entry): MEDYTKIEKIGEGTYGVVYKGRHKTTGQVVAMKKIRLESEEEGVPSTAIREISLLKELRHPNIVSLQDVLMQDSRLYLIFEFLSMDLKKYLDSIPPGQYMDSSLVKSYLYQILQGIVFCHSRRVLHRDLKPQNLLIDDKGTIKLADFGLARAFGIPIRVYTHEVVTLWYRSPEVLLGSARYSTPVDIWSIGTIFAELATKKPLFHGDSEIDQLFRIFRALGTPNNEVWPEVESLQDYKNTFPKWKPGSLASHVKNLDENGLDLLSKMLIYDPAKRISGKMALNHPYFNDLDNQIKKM
T2 sequence (P14635 whole entry partner): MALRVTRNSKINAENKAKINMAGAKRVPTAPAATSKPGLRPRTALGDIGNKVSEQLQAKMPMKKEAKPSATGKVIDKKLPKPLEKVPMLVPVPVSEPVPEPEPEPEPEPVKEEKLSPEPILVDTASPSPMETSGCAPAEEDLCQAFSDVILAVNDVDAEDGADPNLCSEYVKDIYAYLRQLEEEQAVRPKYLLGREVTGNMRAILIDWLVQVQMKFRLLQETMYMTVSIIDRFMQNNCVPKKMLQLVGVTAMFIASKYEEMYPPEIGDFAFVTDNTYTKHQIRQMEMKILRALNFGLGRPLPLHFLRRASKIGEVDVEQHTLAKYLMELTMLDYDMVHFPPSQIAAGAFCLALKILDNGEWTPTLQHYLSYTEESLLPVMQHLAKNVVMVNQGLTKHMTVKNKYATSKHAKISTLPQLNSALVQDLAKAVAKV
Description: As shown in FIG. 2C (lanes labeled None), p34^cdc2 that was immunoprecipitated from HCT116 cells treated with vehicle for 6 to 48 hours consistently phosphorylated histone H1.

[8] = target: T1, GSK3β; assay: Immunoprecipitation and GSK3β kinase assay using glycogen synthase-derived peptide substrate, from treated HCT116 cells; assay type: cell-based; set-up: harvested after 6 or 12 hours, and immunoprecipitated with an antibody to GSK3β; endogenous in cells; host or cells: HCT116 (p53+/+) colorectal carcinoma cells; conditions: p53+/+ HCT116 cells; Purvalanol A 10 μM, LiCl 30 mM, TDZD 20 μM; 6 or 12 hours
Description: Immune complexes were mixed with a synthetic peptide containing a GSK3β phosphorylation site derived from the sequence of glycogen synthase (Upstate Biotechnology) in the presence of 10 μCi of γ-^32P-ATP (Amersham Corp., Piscataway, N.J.), after 30 min incubation at 30° C., the reaction mixtures were centrifuged briefly, and 15 μl of the supernatant was spotted onto P81 phosphocellulose paper (Whatman Inc., Clifton, N.J.). The membrane was washed three times with 175 mM phosphoric acid, rinsed once in acetone, and dried. Changes in peptide phosphorylation under the various conditions tested were determined by scintillation counting. Data were analyzed using the unpaired t test on a Graphpad Prism software package for Windows (Graphpad Inc., San Diego, Calif.). A P value of 0.05 was considered as statistically significant.

T1 sequence (P49841 whole entry): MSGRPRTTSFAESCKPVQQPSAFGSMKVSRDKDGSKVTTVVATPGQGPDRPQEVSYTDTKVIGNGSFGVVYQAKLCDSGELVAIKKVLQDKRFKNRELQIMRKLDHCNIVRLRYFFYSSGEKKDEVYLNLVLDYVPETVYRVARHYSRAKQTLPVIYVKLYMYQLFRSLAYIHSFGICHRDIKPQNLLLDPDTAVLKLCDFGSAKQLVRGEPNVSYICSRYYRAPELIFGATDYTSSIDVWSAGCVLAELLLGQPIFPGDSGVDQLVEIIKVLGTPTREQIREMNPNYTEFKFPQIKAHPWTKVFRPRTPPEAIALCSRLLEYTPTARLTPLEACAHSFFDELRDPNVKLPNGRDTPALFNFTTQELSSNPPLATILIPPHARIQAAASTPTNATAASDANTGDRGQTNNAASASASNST

CC(C)[C@H](CO)Nc1nc(Nc2cccc(Cl)c2)c2ncn(C(C)C)c2n1 [Purvalanol A]
activity against GSK3β in vitro [1]: not active against GSK3β | apoptosis / cell death (hypodiploid DNA content) ([2]; 0-20 μM, 48 hours): largely resistant to Purvalanol A-induced cell death | cell cycle effect (DNA content) ([2]; 0-20 μM, 48 hours): sustained G2/M arrest | enhancement of cell death in survivin-ablated (S4) vs VIII transfectants treated with Purvalanol A ([2]; survivin RNAi (S4), Purvalanol A 5 μM, 24 hour): 2.5 fold | apoptosis (hypodiploid DNA content) [3]: concentration-dependent induction of apoptosis | suppression of p42/p44 MAP kinase [4]: equally effective | systemic toxicity, weight loss ([5]; 20 mg/kg i.p. daily for 5 consecutive days): No signs of systemic toxicity or weight loss | early tumor growth (tumor volume) ([5]; 25 mg/kg i.p. daily for 5 days): significantly inhibited early tumor growth | tumor growth (tumor volume) ([5]; 50 mg/kg i.p. injection daily for 5 days, versus lower dose): did not result in further inhibition of tumor growth | local or systemic toxicity, weight loss ([5]; 25 and 50 mg/kg i.p. daily for 5 days): no signs of local or systemic toxicity or weight loss | suppression of Cdk2 [6]: equally effective | p34^cdc2 kinase activity (histone H1 phosphorylation) ([7]; 6 and 12 hours of treatment): no apparent inhibition of p34^cdc2 kinase activity | p34^cdc2 kinase activity (histone H1 phosphorylation) ([7]; 24 and 48 hours of treatment): did appear to suppress histone H1 phosphorylation | GSK3β kinase activity (peptide phosphorylation) [8]: potently inhibited GSK3β kinase activity
